Measured values from patent US8658791B2, “2-substituted-6-amino-5-alkyl, alkenyl or alkynyl-4-pyrimidinecarboxylic acids and 6-substituted-4-amino-3-alkyl, alkenyl or alkynyl picolinic acids and their use as herbicides” (Dow AgroSciences, LLC, priority 2007, dated 2014).
Blank lines part the entries; values can stand above or below the compound they belong to.

What was measured:
rice (Oryza sativa) [1] = experiment: General postemergence herbicidal activity, ORYSA; type: in vivo; conditions: Oryza sativa, post-emergence, 336 h, postemergence spray, visual score after 14 days, 0 = no injury, 100 = complete kill, read-out: Post-emergent Weed Control ORYSA; for plant injury at 70 g/ha: 70 g ai/ha; for plant injury at 140 g/ha: 140 g ai/ha; for plant injury at 280 g/ha: 280 g ai/ha
In short: (§1)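 Greenhouse plants at first or second true leaf stage sprayed postemergence at 187 L/ha with compound in acetone/DMSO/water mixture with crop oil concentrate and surfactant. Rates ran from a high rate through 1/2X to 1/16X. Visual injury versus untreated plants scored 0–100% after 14 days.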

rice (Oryza sativa) [2] = experiment: General preemergence herbicidal activity, ORYSA; type: in vivo; conditions: applied to soil surface, visual score after 20-22 days, 0 = no injury, 100 = complete kill or no emergence, read-out: Pre-emergent Weed Control ORYSA; for plant injury at 140 g/ha: 140 g ai/ha
Description: (§2) Seeds of the desired test plant species were planted in a soil matrix prepared by mixing a loam soil (43 percent silt, 19 percent clay, and 38 percent sand, with a pH of about 8.1 and an organic matter content of about 1.5 percent) and sand in a 70 to 30 ratio. The soil matrix was contained in plastic pots with a surface area of 127 square centimeters. When required to ensure good germination and healthy plants, a fungicide treatment and/or other chemical or physical treatment was applied. A weighed amount, determined by the highest rate to be tested, of each test compound was placed in a 25 mL glass vial and was dissolved in 6 mL of a 97:3 v/v (volume/volume) mixture of acetone and DMSO to obtain concentrated stock solutions. […] The stock solutions obtained were diluted with 18 mL of a 0.1% v/v aqueous solution of Tween® 20 surfactant to obtain spray solutions containing the highest application rate. Additional application rates were obtained by serial dilution of 12 mL of the high rate solution into a solution containing 3 mL of 97:3 v/v mixture of acetone and DMSO and 9 mL of the 0.1% v/v aqueous solution of Tween® 20 surfactant to obtain 1/2X, 1/4X, 1/8X and 1/16X rates of the high rate. Compound requirements are based upon a 12 mL application volume at a rate of 187 L/ha. Formulated compounds were applied to the soil surface with an overhead Mandel track sprayer equipped with a […] nozzles calibrated to deliver 187 L/ha over an application area of 0.503 square meters at a spray height of 18 inches (43 cm) above the soil surface. Control pots were sprayed in the same manner with the solvent blank. The treated pots and control pots were placed in a greenhouse maintained with an approximate 15 hour photoperiod and temperatures of about 23-29° C. during the day and 22-28° C. during the night. Nutrients and water were added on a regular basis and supplemental lighting was provided with overhead metal halide 1000-Watt lamps as necessary. The water was added by top-irrigation. After 20-22 days, the condition of the test plants that germinated and grew as compared with that of the untreated plants that emerged and grew was determined visually and scored on a scale of 0 to 100 percent where 0 corresponds to no injury and 100 corresponds to complete kill or no emergence.

[3] = system: wild poinsettia (Euphorbia heterophylla); experiment: General postemergence herbicidal activity, EPHHL; type: in vivo; conditions: Euphorbia heterophylla, post-emergence, 336 h, postemergence spray, visual score after 14 days, 0 = no injury, 100 = complete kill, read-out: Post-emergent Weed Control EPHHL; for pest or weed control at 70 g/ha: 70 g ai/ha; for pest or weed control at 140 g/ha: 140 g ai/ha; for pest or weed control at 280 g/ha: 280 g ai/ha
In short: as §1

[4] = system: wild poinsettia (Euphorbia heterophylla); experiment: General preemergence herbicidal activity, EPHHL; type: in vivo; conditions: applied to soil surface, visual score after 20-22 days, 0 = no injury, 100 = complete kill or no emergence, read-out: Pre-emergent Weed Control EPHHL; for pest or weed control at 140 g/ha: 140 g ai/ha
Description: as §2

[5] = system: lambsquarter (Chenopodium album); experiment: General preemergence herbicidal activity, CHEAL; type: in vivo; conditions: applied to soil surface, visual score after 20-22 days, 0 = no injury, 100 = complete kill or no emergence, read-out: Pre-emergent Weed Control CHEAL; for pest or weed control at 140 g/ha: 140 g ai/ha
Description: as §2

[6] = system: velvetleaf (Abutilon theophrasti); experiment: General preemergence herbicidal activity, ABUTH; type: in vivo; conditions: applied to soil surface, visual score after 20-22 days, 0 = no injury, 100 = complete kill or no emergence, read-out: Pre-emergent Weed Control ABUTH; for pest or weed control at 140 g/ha: 140 g ai/ha
Description: as §2

[7] = system: velvetleaf (Abutilon theophrasti); experiment: General postemergence herbicidal activity, ABUTH; type: in vivo; conditions: Abutilon theophrasti, post-emergence, 336 h, postemergence spray, visual score after 14 days, 0 = no injury, 100 = complete kill, read-out: Post-emergent Weed Control ABUTH; for pest or weed control at 70 g/ha: 70 g ai/ha; for pest or weed control at 140 g/ha: 140 g ai/ha; for pest or weed control at 280 g/ha: 280 g ai/ha
In short: as §1

[8] = system: barnyardgrass (Echinochloa crus-galli); experiment: General preemergence herbicidal activity, ECHCG; type: in vivo; conditions: applied to soil surface, visual score after 20-22 days, 0 = no injury, 100 = complete kill or no emergence, read-out: Pre-emergent Weed Control ECHCG; for pest or weed control at 140 g/ha: 140 g ai/ha
Description: as §2

[9] = system: lambsquarter (Chenopodium album); experiment: General postemergence herbicidal activity, CHEAL; type: in vivo; conditions: Chenopodium album, post-emergence, 336 h, postemergence spray, visual score after 14 days, 0 = no injury, 100 = complete kill, read-out: Post-emergent Weed Control CHEAL; for pest or weed control at 70 g/ha: 70 g ai/ha; for pest or weed control at 140 g/ha: 140 g ai/ha; for pest or weed control at 280 g/ha: 280 g ai/ha
In short: as §1

[10] = system: barnyardgrass (Echinochloa crus-galli); experiment: General postemergence herbicidal activity, ECHCG; type: in vivo; conditions: Echinochloa crus-galli, post-emergence, 336 h, postemergence spray, visual score after 14 days, 0 = no injury, 100 = complete kill, read-out: Post-emergent Weed Control ECHCG; for pest or weed control at 70 g/ha: 70 g ai/ha; for pest or weed control at 140 g/ha: 140 g ai/ha; for pest or weed control at 280 g/ha: 280 g ai/ha
In short: as §1

SMILES: C=Cc1c(N)nc(-c2ccc(Cl)c(F)c2F)nc1C(=O)OC [Compound 11, 6-Amino-2-(4-chloro-2,3-difluorophenyl)-5-vinyl-pyrimidine-4-carboxylic acid methyl ester]
- plant injury at 70 g/ha (rice (Oryza sativa) [1]): 0%
- plant injury at 70 g/ha (rice (Oryza sativa) [2]; 70 g ai/ha): 95%
- pest or weed control at 70 g/ha [3]: 100%
- pest or weed control at 70 g/ha ([4]; 70 g ai/ha): 100%
- pest or weed control at 70 g/ha ([5]; 70 g ai/ha): 100%
- pest or weed control at 70 g/ha ([6]; 70 g ai/ha): 100%
- pest or weed control at 70 g/ha [7]: 100%
- pest or weed control at 70 g/ha ([8]; 70 g ai/ha): 100%
- pest or weed control at 70 g/ha [9]: 100%
- pest or weed control at 70 g/ha [10]: 90%

SMILES: CCc1c(N)nc(-c2ccc(Cl)c(OC)c2F)nc1C(=O)OC [Compound 21, 6-Amino-2-(4-chloro-2-fluoro-3-methoxyphenyl)-5-ethyl-pyrimidine-4-carboxylic acid methyl ester]
- plant injury at 140 g/ha (rice (Oryza sativa) [1]): 0%
- plant injury at 140 g/ha (rice (Oryza sativa) [2]): 0%
- pest or weed control at 140 g/ha [3]: 100%
- pest or weed control at 140 g/ha [4]: 80%
- pest or weed control at 140 g/ha [5]: 40%
- pest or weed control at 140 g/ha [6]: 60%
- pest or weed control at 140 g/ha [7]: 85%
- pest or weed control at 140 g/ha [8]: 0%
- pest or weed control at 140 g/ha [9]: 100%
- pest or weed control at 140 g/ha [10]: 70%

- melting point: 167 to 169 °C
SMILES: C=Cc1c(N)nc(-c2ccc(Cl)cc2F)nc1C(=O)O [Compound 42, 6-Amino-2-(4-chloro-2-fluorophenyl)-5-vinylpyrimidine-4-carboxylic acid]
- plant injury at 140 g/ha (rice (Oryza sativa) [2]): 10%
- pest or weed control at 140 g/ha [4]: 100%
- pest or weed control at 140 g/ha [5]: 100%
- pest or weed control at 140 g/ha [6]: 100%
- pest or weed control at 140 g/ha [8]: 30%

SMILES: C=Cc1c(N)nc(-c2ccc(Cl)cc2)nc1C(=O)O [Compound 43, 6-Amino-2-(4-chlorophenyl)-5-vinylpyrimidine-4-carboxylic acid]
- plant injury at 280 g/ha (rice (Oryza sativa) [1]): 35%
- plant injury at 140 g/ha (rice (Oryza sativa) [2]): 90%
- pest or weed control at 280 g/ha [3]: 100%
- pest or weed control at 140 g/ha [4]: 100%
- pest or weed control at 140 g/ha [5]: 100%
- pest or weed control at 140 g/ha [6]: 100%
- pest or weed control at 280 g/ha [7]: 90%
- pest or weed control at 140 g/ha [8]: 90%
- pest or weed control at 280 g/ha [9]: 100%
- pest or weed control at 280 g/ha [10]: 90%

SMILES: C=Cc1c(N)nc(-c2ccc(Cl)c(OC)c2)nc1C(=O)O [Compound 45, 6-Amino-2-(4-chloro-3-methoxyphenyl)-5-vinylpyrimidine-4-carboxylic acid]
- plant injury at 280 g/ha (rice (Oryza sativa) [1]): 0%
- plant injury at 140 g/ha (rice (Oryza sativa) [2]): 30%
- pest or weed control at 280 g/ha [3]: 60%
- pest or weed control at 140 g/ha [4]: 0%
- pest or weed control at 140 g/ha [5]: 60%
- pest or weed control at 140 g/ha [6]: 0%
- pest or weed control at 280 g/ha [7]: 0%
- pest or weed control at 140 g/ha [8]: 10%
- pest or weed control at 280 g/ha [9]: 95%
- pest or weed control at 280 g/ha [10]: 60%

SMILES: C/C=C\c1c(N)nc(-c2ccc(Cl)c(OC)c2F)nc1C(=O)O [Compound 55, 6-Amino-2-(4-chloro-2-fluoro-3-methoxyphenyl)-5-((Z)-propenyl)pyrimidine-4-carboxylic acid]
- plant injury at 70 g/ha (rice (Oryza sativa) [1]): 15%
- plant injury at 140 g/ha (rice (Oryza sativa) [2]): 30%
- pest or weed control at 70 g/ha [3]: 100%
- pest or weed control at 140 g/ha [4]: 100%
- pest or weed control at 140 g/ha [5]: 100%
- pest or weed control at 140 g/ha [6]: 100%
- pest or weed control at 70 g/ha [7]: 100%
- pest or weed control at 140 g/ha [8]: 60%
- pest or weed control at 70 g/ha [9]: 100%
- pest or weed control at 70 g/ha [10]: 100%

SMILES: C=Cc1c(N)cc(-c2ccc(Cl)c(OC)c2F)nc1C(=O)O [Compound 59, 4-Amino-6-(4-chloro-2-fluoro-3-methoxyphenyl)-3-vinylpyridine-2-carboxylic acid]
- plant injury at 140 g/ha (rice (Oryza sativa) [1]): 0%
- plant injury at 140 g/ha (rice (Oryza sativa) [2]): 0%
- pest or weed control at 140 g/ha [3]: 100%
- pest or weed control at 140 g/ha [4]: 100%
- pest or weed control at 140 g/ha [5]: 100%
- pest or weed control at 140 g/ha [6]: 100%
- pest or weed control at 140 g/ha [7]: 100%
- pest or weed control at 140 g/ha [8]: 100%
- pest or weed control at 140 g/ha [9]: 100%
- pest or weed control at 140 g/ha [10]: 100%
